Laboratory results as given in patent US10532068B2, “Dual molecular delivery of oligonucleotides and peptide containing conjugates” (Merck Sharp & Dohme Corp., priority 2013, dated 2020).
Strand notation (5' to 3'): a small letter for the sugar, then the base; units joined by * are phosphorothioate-linked, units joined directly phosphodiester-linked; [ ] holds rarer units or linkages, { } end groups; capitals alone tell only the bases. Where no end group is shown, it is not given here. [ ]: non-standard residue; d: D form. {NH2C6-invAb} = cap: inverted abasic residue carrying an aminohexyl phosphate (attachment handle); [invAb] = inverted abasic unit; m = 2'-O-methyl; f = 2'-fluoro

Columns and labels:
CTNNB1 = assay: In vivo evaluation in mice: liver mRNA knockdown measurement (TaqMan qPCR); design: species or system CD-1 mice; details: for In vivo mRNA knockdown (%): Table 6, mice
Method: (§1) Female CD-1 mice (Charles River) were injected in accordance with either a sequential dosing paradigm or a co-dosing paradigm. In the sequential dosing paradigm, the targeted siRNA (SCE) is dosed at t=0 and the targeted peptide is separately dosed up to 2 hr before the SCE (−2 hr) or up to 24 hr after the SCE (+24 hr). In the co-dosing paradigm, the SCE and peptides are co-formulated and dosed together in the same formulation as a single injection at t=0. The mice were dosed either by intravenous (i.v.) or subcutaneous (s.c.) injection of SCE and peptide. For the i.v. doses, the compounds were injected into the tail vein of the mice. For the s.c. doses, the compounds were injected in the subcutaneous space on the back of the mouse between the shoulder blades. At the indicated harvest times (measured from t=0 when the siRNA was dosed, regardless of when the peptide was dosed), the animals were sacrificed and 3 mm liver punches were collected, preserved in RNAlater (Ambion), and stored at 4° C. Separate 5 mm liver punches were collected, placed in 96-well plates, frozen on dry ice, and stored at −80° C. until use.
The 3 mm liver punches were removed from RNAlater and homogenized in Trizol (Invitrogen) using a bead mill tissue lyser (Qiagen); disruption was performed for two 5-minute cycles at 30 Hz. RNA extraction was performed using 1-bromo-2-chloropropane (Acros Organics) and total RNA was isolated from the aqueous phase using the MagMax RNA isolation method (Ambion). […] TaqMan qPCR analysis was performed with an ABI 7900 Real-Time PCR System using TaqMan Fast Advanced Master Mix (Applied Biosystems). All TaqMan probes and primers for CTNNB1 and PPIB (housekeeping gene) were purchased from Applied Biosystems as pre-validated gene expression assays. Results are calculated by the comparative Ct method, where the difference between the CTNNB1 Ct value and the PPIB Ct value (ΔCt) is calculated and then further normalized relative to the PBS control by taking a second difference (ΔΔCt), as described previously (1).

[1] = Lethality observed in the in vivo evaluation in mice; design: species or system CD-1 mice; key to lethal at this dose (asterisk at targeted peptide dose): *: lethal at this dose
Method: as §1

[2] = siRNA metabolic stability (FIG. 6 legend); details: order siRNA-I>siRNA-V>siRNA-VI
[3] = sequential, peptide IV 15 min after siRNA IV, TGN-L-siRNA-III 0.5 mg/kg, peptide 2 mg/kg
[4] = sequential, peptide IV 15 min after siRNA IV, TGN-L-siRNA-III 0.5 mg/kg, peptide 10 mg/kg
[5] = sequential, peptide IV 15 min after siRNA IV, TGN-L-siRNA-III 0.5 mg/kg, peptide 25 mg/kg
[6] = Table 6, TGN-L-siRNA-III 0.5 mg/kg IV, peptide 25 mg/kg IV 15 min after siRNA
[7] = Table 6, TGN-L-siRNA-III 0.25 mg/kg IV, peptide 10 mg/kg IV 15 min after siRNA

## TGN-S-S-SEQ ID NO: 1248 (D) (C[dF][dL][dE][dE][dL][dW][dE][dL][dL][dE][dH][dL][dL]; not fully specified (residue 1); listed as Homo sapiens)
CTNNB1; [3]
  In vivo mRNA knockdown (%): 42%
CTNNB1; [4]
  In vivo mRNA knockdown (%): 74%
CTNNB1; [5]
  In vivo mRNA knockdown (%): 58%
[1]; [6]
  lethal at this dose (asterisk at targeted peptide dose): 25*

## TGN-S-S-SEQ ID NO: 1419 (D) (C[dF][dL][dE][dE][dL][dW]G[dL][dL][dE][dH][dL][dL]; not fully specified (residue 1); listed as Homo sapiens)
CTNNB1; [3]
  In vivo mRNA knockdown (%): 43%
CTNNB1; [4]
  In vivo mRNA knockdown (%): 78%
CTNNB1; [5]
  In vivo mRNA knockdown (%): 76%
[1]; [6]
  lethal at this dose (asterisk at targeted peptide dose): 25*

## TGN-S-S-SEQ ID NO: 1628 (D) ([dC]G[dL][dL][dA][dI]X[dE][dI][dE][dE][dL][dL][dE][dE]G[dL][dE][dN][dL][dI][dD][dW][dW][dN][dS]; not fully specified; also: TGN via disulfide; listed as Homo sapiens)
[1]; [7]
  Mortality (words printed in the knockdown column): All mice died
  lethal at this dose (asterisk at targeted peptide dose): 10*

## TGN-S-S-SEQ ID NO: 1654 (D) (CG[dL][dL][dE][dE][dI][dE][dE][dL][dL][dE][dE]G[dL][dE][dN][dL][dI][dD][dW]G[dN][dS]; not fully specified (residue 1); listed as Homo sapiens)
CTNNB1; sequential, peptide IV 15 min after siRNA IV, TGN-L-siRNA-III 0.25 mg/kg, peptide 2 mg/kg
  In vivo mRNA knockdown (%): 51%
CTNNB1; sequential, peptide IV 15 min after siRNA IV, TGN-L-siRNA-III 0.25 mg/kg, peptide 10 mg/kg
  In vivo mRNA knockdown (%): 72%
CTNNB1; sequential, peptide IV 15 min after siRNA IV, TGN-L-siRNA-III 0.25 mg/kg, peptide 50 mg/kg
  In vivo mRNA knockdown (%): 65%
[1]; Table 6, TGN-L-siRNA-III 0.25 mg/kg IV, peptide 50 mg/kg IV 15 min after siRNA
  lethal at this dose (asterisk at targeted peptide dose): 50*

## TGN-S-S-SEQ ID NO: 1746 (D): TGN-S-S-peptide, peptide CEALFGKINAIFIGKL ([dC][dE][dA][dL][dF]G[dK][dI][dN][dA][dI][dF][dI]G[dK][dL]; also: disulfide to TGN peptide via N-terminal Cys; listed as Homo sapiens)
CTNNB1; [3]
  In vivo mRNA knockdown (%): 31%
CTNNB1; [4]
  In vivo mRNA knockdown (%): 25%

## siRNA-I: CTNNB1 ds siRNA, passenger SEQ ID NO 1803, guide SEQ ID NO 1804 (sense {NH2C6-invAb}-mCmUfGmUmUfGfGfAmUmUfGfAmUmUmCfGfAfAfAmU*mU[invAb]; guide mU*fU*mU*fCmGfAmAfUmCfAmAfUmCfCmAfAmCfAmGmU*mU; targeting ligand attached via linker, site not given here)
CTNNB1; FIG. 4, sequential dosing, peptide 15 min after siRNA
  time course of mRNA KD in DMD format compared to 5-fold higher dose of siRNA-III alone: faster and greater KD
CTNNB1; FIG. 6, peptide within 2 hr before up to 24 hr after siRNA dose
  effect of the timing of peptide dose on activity: does not significantly change the activity
[2]
  siRNA stability (metabolic stability): highly stable

## siRNA-IV: CTNNB1 ds siRNA, passenger SEQ ID NO 1807 (clickA, 5Chol), guide SEQ ID NO 1806 (sense CUGUUGGAUUGAUUCGAAAUU; guide TUUCGAAUCAAUCCAACAGUU; clickA; 5' cholesterol; (1)..(1) aminohexyl phosphate inverted abasic cap; (1)..(2) 2′-O-methyl; (3)..(3) 2′-deoxy-2′-fluoro; (4)..(5) 2′-O-methyl; (6)..(8) 2′-deoxy-2′-fluoro; (9)..(10) 2′-O-methyl; (11)..(12) 2′-deoxy-2′-fluoro; (13)..(15) 2′-O-methyl; (16)..(16) 2′-deoxy-2′-fluoro; (17)..(17) 2′ propagyl; (18)..(19) 2′-deoxy-2′-fluoro; (20)..(21) 2′-O-methyl; (20)..(21) phosphorothioate internucleotide linkage; (21)..; (1)..(1) terminal vinyl phosphate; (1)..(1) 2′-methoxyethoxy; (2)..(21) ribonucleotide unmodified or modified as described for this sequence; (2)..(2) 2′-deoxy-2′-fluoro; …)
CTNNB1; siRNA-IV 0.5 mg/kg IV, peptide dose 0
  In vivo mRNA knockdown (%): 25%
CTNNB1; siRNA-IV 2 mg/kg IV, peptide dose 0
  In vivo mRNA knockdown (%): 25%
CTNNB1; siRNA-IV 5 mg/kg IV, peptide dose 0
  In vivo mRNA knockdown (%): 35%

## siRNA-V: CTNNB1 ds siRNA, passenger SEQ ID NO 1803, guide SEQ ID NO 1808 (sense {NH2C6-invAb}-mCmUfGmUmUfGfGfAmUmUfGfAmUmUmCfGfAfAfAmU*mU[invAb]; guide mUfUmUfCmGfAmAfUmCfAmAfUmCfCmAfAmCfAmGmU*mU)
CTNNB1; FIG. 6, peptide dose times within 2 hr (before or after) the siRNA
  activity (KD): ~25%
[2]
  siRNA stability (metabolic stability): moderately stable

## siRNA-VI: CTNNB1 ds siRNA, passenger SEQ ID NO 1803, guide SEQ ID NO 1809 (sense {NH2C6-invAb}-mCmUfGmUmUfGfGfAmUmUfGfAmUmUmCfGfAfAfAmU*mU[invAb]; guide fUfUfUmCfGfAfAmUmCfAfAmUmCfCfAfAmCfAfGmU*mU)
[2]
  siRNA stability (metabolic stability): more unstable
